# Laboratory results published in patent US8778958B2, “Synthesis of metabolically stable agents for alcohol and drug abuse” (priority 2008, dated 2014).
# Read-outs that look alike come from different tables or passages of the source.
# Key:
# [1] = tested on: rats trained to self-administer a 10% (w/v) ethanol solution; assay: Operant oral ethanol self-administration; type: in vivo, rat; conditions: for ED50: Rattus norvegicus, po, read-out: ED50 for ethanol self-administration; for Overall effect on operant self-administration of 10% ethanol: ANOVA, treatment 30 min prior to testing
# Protocol: (§1) Ethanol or saccharin (SACC) self-administration training was conducted in standard operant cages (Coulbourn Instruments, PA) located in sound-attenuated, ventilated cubicles. Two 35-ml syringes dispensed either ethanol/SACC or water through plastic tubing into two stainless steel drinking cups mounted 4 cm above the grid floor and centered on the front panel of each chamber. Each drinking cup held 2 reinforcer deliveries (0.1 ml fluid/reinforcer). Two retractable levers were located 4.5 cm to either side of the drinking cups. Fluid delivery and recording of operant responses were controlled by a microcomputer. Briefly, animals were trained to voluntarily self-administer 10% (w/v) ethanol (n=10) or saccharin (n=6) by the oral route using the saccharin fadeout method^39 and were tested for their response for ethanol or saccharin solution in a two-lever free choice situation. Once baseline ethanol and saccharin intake were achieved (i.e., when responding across 3 consecutive days varied less than 20% and response rates correspond to pharmacologically relevant blood alcohol levels (BALs)), dose response testing for each compound commenced. To allow for a complete dissipation of any carry-over effects, a one week washout period, where rats were re-baselined during daily 30 min operant sessions, occurred between testing of each compound.
# (§2) Data were collected on-line simultaneously from multiple operant chambers. Results of the operant procedure are reported as mean cumulative number of bar presses for ethanol or saccharin. In general, tests for homogeneity of variance were first performed on the data. […] Data were analyzed using the StatView statistical package on a PC-compatible computer. Mixed-design ANOVAs were used with drug treatments as a within-subjects factor (i.e., repeated measures design for drug treatment). A priori analysis examining individual drug doses to vehicle control dose was conducted using paired t-tests. Significant drug effects were defined as having p<0.05 compared to vehicle-treated rats.
# [2] = tested on: rats self-administering 0.5 mg/kg/injection of cocaine; assay: Cocaine self-administration, short (ShA) and long access (LgA)
# [3] = tested on: rats trained to orally self-administer a 0.025% saccharin solution; assay: Operant oral saccharin self-administration (control); type: in vivo, rat; conditions: for Overall effect on operant self-administration of saccharin vs vehicle: ANOVA
# Protocol: as §1, §2
# [4] = Metabolic stability, human liver S-9; conditions: for half-life at 40 μM: human, s9, pH 7.4; for Half Life, Human liver preparation: 40 μM test compound, NADPH-generating system, NC = No Change
# Protocol: (§3) A typical assay mixture contained rat or mouse liver microsomes or human liver S-9 (0.4-0.5 mg of protein), 100 μM potassium phosphate buffer (pH 7.4), 40 μM test compound, an NADPH-generating system consisting of 0.5 mM NADP^+, 0.5 mM glucose-6-phosphate, 5 IU/mL glucose-6-phosphate dehydrogenase, 1 mg/mL DETAPAC and 7 mM MgCl2 for a final incubation volume of 0.1 mL^23. […] After centrifugation at 13,000 rpm for 5 min, the organic fraction was collected and the solvent was removed with a stream of argon. The residue was reconstituted in methanol (200 L), centrifuged at 13,000 rpm for 5 min and the supernatant was analyzed by high-performance liquid chromatography with an Axxi-chrom (straight-phase) silica column (4.6 mm×250 mm, 5 m) or with a Supelco (reverse-phase) HS F5 pentafluorophenyl column (4.6 mm×250 mm, 5 m) as described above.
# [5] = Metabolic stability, mouse liver microsomes; conditions: for half-life at 40 μM: mouse, microsomes, pH 7.4; for Half Life, Mouse liver preparation: 40 μM test compound, NADPH-generating system, NC = No Change
# Protocol: as §3
# [6] = target: T1, μ-opioid receptor (Mus musculus, UniProt P42866); assay: biochemical; type: biochemical, human; conditions: read-out: Emax, μ, inhibition of basal [35S]GTPγS binding
# T1 construct: FLAG; expressed in transfected cells
# T1 sequence (P42866 whole entry): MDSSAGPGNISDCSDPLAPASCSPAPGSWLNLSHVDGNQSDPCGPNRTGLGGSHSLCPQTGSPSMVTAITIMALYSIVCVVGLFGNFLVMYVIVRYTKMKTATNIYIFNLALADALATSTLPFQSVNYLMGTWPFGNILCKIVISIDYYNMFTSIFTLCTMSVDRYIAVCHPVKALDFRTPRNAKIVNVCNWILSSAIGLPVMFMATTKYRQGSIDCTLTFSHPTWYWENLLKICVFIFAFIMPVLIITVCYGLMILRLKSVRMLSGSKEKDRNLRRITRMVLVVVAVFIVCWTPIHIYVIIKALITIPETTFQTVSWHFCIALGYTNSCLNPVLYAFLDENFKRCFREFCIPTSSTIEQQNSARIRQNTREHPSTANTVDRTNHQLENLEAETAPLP
# [7] = target: T2, NOP (nociceptin) receptor (Homo sapiens, UniProt P41146)
# T2 sequence (P41146 whole entry): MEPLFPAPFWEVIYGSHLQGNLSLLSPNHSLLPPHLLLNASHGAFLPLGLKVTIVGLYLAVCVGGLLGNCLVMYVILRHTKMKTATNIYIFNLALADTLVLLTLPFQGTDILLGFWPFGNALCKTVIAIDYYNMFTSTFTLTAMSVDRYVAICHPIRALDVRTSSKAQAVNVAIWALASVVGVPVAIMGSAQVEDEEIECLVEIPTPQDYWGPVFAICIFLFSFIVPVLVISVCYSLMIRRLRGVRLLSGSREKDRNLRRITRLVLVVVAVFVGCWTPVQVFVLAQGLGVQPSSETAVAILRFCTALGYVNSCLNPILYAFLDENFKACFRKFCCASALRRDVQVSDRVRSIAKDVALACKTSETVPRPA
# [8] = Solubility in H2O; conditions: salt as labelled
# [9] = target: T1, μ-opioid receptor; assay: biochemical; design: species or system human
# [10] = target: T3, κ-opioid receptor (Mus musculus, UniProt P33534); assay: biochemical; design: species or system human
# T3 construct: FLAG; expressed in transfected cells
# T3 sequence (P33534 whole entry): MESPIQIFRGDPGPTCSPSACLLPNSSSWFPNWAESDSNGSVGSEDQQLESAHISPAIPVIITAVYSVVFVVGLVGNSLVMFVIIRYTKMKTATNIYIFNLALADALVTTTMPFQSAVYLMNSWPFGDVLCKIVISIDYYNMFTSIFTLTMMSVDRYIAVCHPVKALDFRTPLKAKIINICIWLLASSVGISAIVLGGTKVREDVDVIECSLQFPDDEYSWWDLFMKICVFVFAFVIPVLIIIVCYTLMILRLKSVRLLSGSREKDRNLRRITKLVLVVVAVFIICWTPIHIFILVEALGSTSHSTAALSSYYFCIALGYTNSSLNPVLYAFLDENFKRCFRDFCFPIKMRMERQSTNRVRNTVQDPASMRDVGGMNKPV
# [11] = target: T4, δ-opioid receptor (Mus musculus, UniProt P32300); assay: biochemical; design: species or system human
# T4 construct: hemagglutinin (HA); expressed in transfected cells
# T4 sequence (P32300 whole entry): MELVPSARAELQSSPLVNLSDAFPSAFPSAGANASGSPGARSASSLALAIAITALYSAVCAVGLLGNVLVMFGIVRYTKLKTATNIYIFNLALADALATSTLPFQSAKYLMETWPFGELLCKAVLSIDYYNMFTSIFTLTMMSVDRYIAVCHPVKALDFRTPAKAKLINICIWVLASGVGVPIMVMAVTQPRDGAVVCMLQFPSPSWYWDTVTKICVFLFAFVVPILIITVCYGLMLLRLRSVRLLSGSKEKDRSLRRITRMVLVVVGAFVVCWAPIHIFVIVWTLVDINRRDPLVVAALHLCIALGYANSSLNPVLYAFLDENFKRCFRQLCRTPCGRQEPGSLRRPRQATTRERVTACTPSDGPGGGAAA
# [12] = target: T4, δ-opioid receptor; assay: biochemical; type: biochemical, human; conditions: read-out: Emax, δ, inhibition of basal [35S]GTPγS binding
# [13] = tested on: T5, κ-opioid receptor; assay: biochemical; type: biochemical, human; conditions: read-out: Emax, κ, inhibition of basal [35S]GTPγS binding
# T5 construct: FLAG; expressed in transfected cells
# T5 sequence (P33534 whole entry): as the sequence (P33534 whole entry) above
# [14] = target: T2, NOP (nociceptin) receptor; assay: Inhibition of basal [35S]GTPγS binding (inverse agonism), NOP; type: biochemical; design: FLAG; expressed in transfected cells
# [15] = Metabolism of compound 6 in human liver microsomes; conditions: going from pH 7.4 to pH 10
# Protocol: For analysis, 50 μg of 6,6-N-oxide and bromobenzoic acid was used as TLC standards and the UV-vis bands corresponding to these regions were scraped and placed in scintillation vials for counting and quantification. For the HPLC assay, the incubation was stopped by the addition of isopropanol/CH2Cl2 (3/1, v/v), mixed thoroughly and the organic layer was separated by centrifugation. […] The analytes were quantified on the basis of HPLC peak height.
# [16] = doses of 0.0125, 0.025 and 0.05 mg/kg
# [17] = read-out: Emax, μ, stimulation of [35S]GTPγS binding
# [18] = read-out: Emax, κ, stimulation of [35S]GTPγS binding
# [19] = read-out: Emax, δ, stimulation of [35S]GTPγS binding
molecule,measurement,setting,value
"O=C1CC[C@@]2(O)[C@H]3Cc4ccc(O)c5c4[C@@]2(CCN3CC2CC2)[C@H]1O5 [Compound 1a, naltrexone, reference compound]",ED50,[1],~0.5 mg/kg
same,"Cocaine intake, schedule not stated",[2],decreased cocaine intake in both groups
"C=C1CC[C@@]2(O)[C@H]3Cc4ccc(O)c5c4[C@@]2(CCN3CC2CC2)[C@H]1O5 [Compound 1b, nalmefene, reference compound]",Overall effect on operant self-administration of 10% ethanol,[1],had an overall effect
same,ED50,[1],~0.04 mg/kg
same,"Post hoc analysis vs vehicle, operant self-administration of 10% ethanol",[1]; [16],significantly inhibited
same,Overall effect on operant self-administration of saccharin vs vehicle,[3],did not have an overall effect
same,half-life at 40 μM,[4],0.333 h
same,half-life at 40 μM,[5],0.333 h
"Cc1ccc(C(=O)N[C@@H]2CC[C@@]3(O)[C@H]4Cc5ccc(O)c6c5[C@@]3(CCN4CC3CC3)[C@H]2O6)cc1 [Compound 4, 6-β-(4′-Methyl)benzamido-14-hydroxy-17-(cyclopropylmethyl) nordesmorphine]",Emax,[6],3 ± 2.4%
same,melting point,,207.6 °C
same,Emax,[7],0%
same,"Half Life, Human liver preparation",[4],remained unchanged
same,"Half Life, Mouse liver preparation",[5],remained unchanged
"Cc1ccc(C(=O)N[C@@H]2CC[C@@]3(O)[C@H]4Cc5ccc(O)c6c5[C@@]3(CCN4CC3CC3)[C@H]2O6)cc1.O=C(O)C(=O)O [Compound 4-oxalate, 6-β-(4′-Methyl)benzamido-14-hydroxy-17-(cyclopropylmethyl) nordesmorphine oxalate]",Solubility in H2O,[8],2000 µg/mL
"O=C(N[C@@H]1CC[C@@]2(O)[C@H]3Cc4ccc(O)c5c4[C@@]2(CCN3CC2CC2)[C@H]1O5)c1ccc(C(F)(F)F)cc1 [Compound 5, 6-β-(4′-Trifluoromethyl)benzamido-14-hydroxy-17-(cyclopropylmethyl)nordesmorphine]",Emax,[9]; [17],28 to 63%
same,Emax,[10]; [18],28 to 63%
same,Overall effect on operant self-administration of 10% ethanol,[1],had an overall effect
same,"Post hoc analysis vs vehicle, operant self-administration of 10% ethanol",[1]; [16],significantly inhibited
same,Overall effect on operant self-administration of saccharin vs vehicle,[3],did have an overall effect
same,"Post-hoc analysis vs vehicle, self-administration of saccharin","[3]; […] for 5, 0.05 mg/kg for 6, the only such doses",significantly inhibited
same,melting point,,157.5 °C
same,Emax,[7],0%
same,"Half Life, Human liver preparation",[4],remained unchanged
same,"Half Life, Mouse liver preparation",[5],remained unchanged
"O=C(N[C@@H]1CC[C@@]2(O)[C@H]3Cc4ccc(O)c5c4[C@@]2(CCN3CC2CC2)[C@H]1O5)c1ccc(C(F)(F)F)cc1.O=C(O)C(=O)O [Compound 5-oxalate, 6-β-(4′-Trimethylfluoro)benzamido-14-hydroxy-17-(cyclopropylmethyl)nordesmorphine-oxalate]",Solubility in H2O,[8],1000 µg/mL
"O=C(N[C@@H]1CC[C@@]2(O)[C@H]3Cc4ccc(O)c5c4[C@@]2(CCN3CC2CC2)[C@H]1O5)c1ccc(Br)cc1 [Compound 6, 6-β-(4′-Bromo)benzamido-14-hydroxy-17-(cyclopropylmethyl) nordesmorphine]","Emax, μ, stimulation of [35S]GTPγS binding",[9],38 ± 4.3%
same,Emax,[9]; [17],28 to 63%
same,"Emax, δ, stimulation of [35S]GTPγS binding",[11],46 ± 3.7%
same,Emax,[11]; [19],28 to 63%
same,"Emax, κ, stimulation of [35S]GTPγS binding",[10],42 ± 3.9%
same,Emax,[10]; [18],28 to 63%
same,Emax,[6],0%
same,Emax,[12],35 ± 4.8%
same,Emax,[13],0%
same,Emax,[7],0%
same,EC50,[14],94 ± 33 nM
same,Emax,"[14]; read-out: Emax, NOP, inhibition of basal [35S]GTPγS binding",92 ± 7.4%
same,half-life at 40 μM,[4],> 1.87 h
same,half-life at 40 μM,[5],> 1.87 h
same,"Rate of N-oxide formation, dependence on pH",[15],the rate doubled
"O=C(N[C@@H]1CC[C@@]2(O)[C@H]3Cc4ccc(O)c5c4[C@@]2(CCN3CC2CC2)[C@H]1O5)c1ccc(Br)cc1.O=C(O)C(=O)O [Compound 6-oxalate, 6-β-(4′-Bromo)benzamido-14-hydroxy-17-(cyclopropylmethyl) nordesmorphine-oxalate]",Solubility in H2O,[8],200 µg/mL
same,"Cocaine intake, schedule not stated",[2],decreased cocaine intake in both groups
same,Cocaine self-administration under a PR schedule,[2],dose-dependently decreased cocaine self-administration
"O=C(N[C@@H]1CC[C@@]2(O)[C@H]3Cc4ccc(O)c5c4[C@@]2(CCN3CC2CC2)[C@H]1O5)c1ccc(I)cc1 [Compound 7, 6-β-(4′-Iodo)benzamido-14-hydroxy-17-(cyclopropylmethyl)nordesmorphine]",Emax,[9]; [17],28 to 63%
same,Emax,[11]; [19],28 to 63%
same,Overall effect on operant self-administration of 10% ethanol,[1],had an overall effect
same,"Post hoc analysis vs vehicle, operant self-administration of 10% ethanol",[1]; only a dose of 0.05 mg/kg,significantly inhibited
same,Overall effect on operant self-administration of saccharin vs vehicle,[3],did have an overall effect
same,Emax,[7],0%
"CC(C)(C)c1ccc(C(=O)N[C@@H]2CC[C@@]3(O)[C@H]4Cc5ccc(O)c6c5[C@@]3(CCN4CC3CC3)[C@H]2O6)cc1 [Compound 8, 6-(4′-t-Butyl)benzamido-14-hydroxy-17-(cyclopropylmethyl)nordesmorphine]",Overall effect on operant self-administration of 10% ethanol,[1],had an overall effect
same,"Post hoc analysis vs vehicle, operant self-administration of 10% ethanol",[1]; only a dose of 0.05 mg/kg,significantly inhibited
same,Overall effect on operant self-administration of saccharin vs vehicle,[3],did not have an overall effect
same,melting point,,151.1 °C
same,Emax,[7],0%
same,half-life at 40 μM,[4],> 1.87 h
same,half-life at 40 μM,[5],> 1.87 h
"CC(C)(C)c1ccc(C(=O)N[C@@H]2CC[C@@]3(O)[C@H]4Cc5ccc(O)c6c5[C@@]3(CCN4CC3CC3)[C@H]2O6)cc1.O=C(O)C(=O)O [Compound 8-oxalate, 6-β-(4′-t-Butyl)benzamido-14-hydroxy-17-(cyclopropylmethyl)nordesmorphine-oxalate]",Solubility in H2O,[8],6000 µg/mL
"O=C(N[C@@H]1CC[C@@]2(O)[C@H]3Cc4ccc(O)c5c4[C@@]2(CCN3CC2CC2)[C@H]1O5)c1ccc(Cl)cc1 [Compound 10, 6-β-(4′-Chloro)benzamido-14-hydroxy-17-(cyclopropylmethyl)nordesmorphine]",Emax,[9]; [17],46 ± 3.8%
same,Emax,"[9]; read-out: Emax, μ, stimulation of [35S]GTPγS binding, percentage of basal [35S]GTPγS binding stimulation",28 to 63%
same,Emax,[11]; [19],22 ± 1.7%
same,Emax,"[11]; read-out: Emax, δ, stimulation of [35S]GTPγS binding, percentage of basal [35S]GTPγS binding stimulation",28 to 63%
same,Emax,"[10]; read-out: Emax, κ, stimulation of [35S]GTPγS binding, percentage of basal [35S]GTPγS binding stimulation",28 to 63%
same,Emax,[6],0%
same,Emax,[12],0%
same,Emax,[13],0%
same,melting point,,188.8 °C
same,EC50,[14],88 ± 19 nM
"Oc1ccc2c3c1O[C@H]1c4[nH]c5c(c4C[C@@]4(O)[C@@H](C2)N(CC2CC2)CC[C@]314)C[C@@]1(O)[C@H]2Cc3ccc(O)c4c3[C@@]1(CCN2CC1CC1)[C@H]5O4 [Nor-BNI, reference compound]",Cocaine self-administration under a PR schedule,[2],decreased cocaine intake in LgA rats
"[D-pen2, D-pen5]-enkephalin [Compound 14, reference compound]",Emax,[7],0%
